According to patent publication US7968601B2, “Adamantyl acetamides as 11-β hydroxysteroid dehydrogenase inhibitors” (Janssen Pharmaceutica N.V., priority 2002, dated 2011):

What was measured:
11b-HSD2 [1] = biological target: T1, 11b-HSD2 (Homo sapiens, UniProt P80365); experiment: Enzymatic assay, 11b-HSD2 dependent dehydrogenase activity; assay type: biochemical; details: 11b-HSD2 dehydrogenase activity, pIC50 scored 1-3, read-out: [C1] HSD2 prot Dehydro Score
T1 sequence (P80365 1-405): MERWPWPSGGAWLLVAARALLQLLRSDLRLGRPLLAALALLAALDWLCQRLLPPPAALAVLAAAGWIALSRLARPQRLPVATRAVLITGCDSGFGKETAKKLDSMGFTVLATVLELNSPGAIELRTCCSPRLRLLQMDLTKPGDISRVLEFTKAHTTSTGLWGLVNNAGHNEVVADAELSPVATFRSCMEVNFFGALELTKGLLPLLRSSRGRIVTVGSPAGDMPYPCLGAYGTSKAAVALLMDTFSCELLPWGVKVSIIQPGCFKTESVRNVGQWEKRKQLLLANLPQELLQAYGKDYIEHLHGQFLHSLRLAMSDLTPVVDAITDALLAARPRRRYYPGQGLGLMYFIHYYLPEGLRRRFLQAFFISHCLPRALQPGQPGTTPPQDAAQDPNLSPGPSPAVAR
Experimental: The effects on the 11b-HSD2 dependent dehydrogenase activity was studied in a reaction mixture containing 0.1M sodium phosphate buffer pH 7.5, 300 μM NAD, 100 nM cortisol (of which 2 nM is 3H-radio labelled), 1 μl drug and/or solvent and 2.5 μg recombinant protein in a final volume of 100 μl.
(§1) All incubations were performed for 45 min at 37 C in a water bath. The reaction was stopped by adding 100 μl acetonitrile containing 20 μg corticosterone as internal standard. After centrifugation, the product formation was analysed in the supernatant by HPLC on a Hypersyl BDS-C18 column using 0.05 mM ammonium acetate/methanol (50/50) as solvent. In all of the aforementioned assays, the drugs to be tested were taken from a stock solution and tested at a final concentration ranging from […] to 3.10^−9M. From the thus obtained dose response curves, the pIC50 value was calculated and scored as follows; Score 1=pIC50 value<5, Score 2=pIC50 value in the range of 5 to 6, Score 3=pIC50 value>6. (in this table NT stands for Not Tested).

11b-HSD1 [2] = biological target: T2, 11b-HSD1 (Mus musculus, UniProt P50172); experiment: Cellular assay, 11b-HSD1 activity in differentiated 3T3-L1 cells; assay type: cell-based; details: 4 hour pre-incubation; for IC50: pIC50 scored 1-3, read-out: [C2] HSD1 cellular 3T3-L1 Score
T2 construct: endogenous in cells; host or cells: 3T3-L1 (ATCC-CL-173), differentiated into adipocytes
Experimental: The effects on 11b-HSD1 activity was measured in differentiated 3T3-L1 cells and rat hepatocytes.
Mouse fibroblast 3T3-L1 cells (ATCC-CL-173) were seeded at a density of 16500 cells/ml in 12 well plates and grown for 7 days in DMEM medium (supplemented with 10% heat inactivated foetal calf serum, 2 mM glutamine and 25 mg gentamycin) at 37 C in a humidified 5% CO2 atmosphere. Medium was refreshed twice a week. Fibroblasts were differentiated into adipocytes at 37 C in a 5% CO2 humidified atmosphere in growth medium containing 2 μg/ml insulin, 55 μg/ml IBMX and 39.2 μg/ml dexamethasone.
Following a 4 hour pre-incubation with test compound, 0.5 μCi ^3H-cortisone or dehydrocorticosterone, was added to the cultures. One hour later, the medium was extracted on Extrelut^3-columns with 15 ml diethyl ether and the extract was analysed by HPLC as described above.
(§2) As for the enzymatic assays, the compounds to be tested were taken from a stock solution and tested at a final concentration ranging from […] to 3.10^−9M. From the thus obtained dose response curves, the pIC50 value was calculated and scored as follows; Score 1=pIC50 value<5, Score 2=pIC50 value in the range of 5 to 6, Score 3=pIC50 value>6. (in this table NT stands for Not Tested).

11b-HSD2 [3] = biological target: T1, 11b-HSD2; experiment: Cellular assay, 11b-HSD2 activity in HepG2 cells; assay type: cell-based; set-up: endogenous in cells; host or cells: HepG2 (ATCC HB-8065); details: 4 hour pre-incubation; for IC50: pIC50 scored 1-3, read-out: [C2] HSD2 cellular HepG2 Score
Experimental: The effects on 11b-HSD2 activity was studied in HepG2 and LCC-PK1-cells HepG2-cells (ATCC HB-8065) were seeded in 12 well plates at a density of 100,000 cells/ml and grown at 37 C in a humidified 5% CO2 atmosphere in MEM-Rega-3 medium supplemented with 10% heat inactivated foetal calf serum, 2 mM L-glutamine and sodium bicarbonate). Medium was refreshed twice a week. Pig kidney cells (LCC-PK1, ATCC CRL-1392) were seeded at a density of 150,000 cells/ml in 12 well plates and grown at 37 C in a humidified 5% CO2 atmosphere in Medium 199 supplemented with Earls modified salt solution, 100 U/ml penicillin, 100 μg/ml streptomycin and 10% foetal calf serum. Medium was refreshed twice a week. Twenty four hours prior to the onset of the experiment, medium was changed by medium containing 10% charcoal stripped foetal calf serum.
Following a 4 hour pre-incubation with test compound, 0.5 μCi ^3H-cortisol or corticosterone, was added to the cultures. One hour later, the medium was extracted on Extrelut^3-columns with 15 ml diethyl ether and the extract was analysed by HPLC as described above.
as §2

11b-HSD1 [4] = biological target: 11b-HSD1 (Homo sapiens, UniProt P28845); experiment: Enzymatic assay, 11b-HSD1 reductase activity (conversion of cortisone into cortisol); assay type: biochemical; details: pIC50 scored 1-3, read-out: [C1] HSD1-prot Reduct Score
Experimental: The effects of compounds on 11b-HSD1 dependent conversion of cortisone into cortisol (reductase activity) was studied in a reaction mixture containing 30 mM Tris-HCl buffer pH 7.2, 180 μM NADPH, 1 mM EDTA, 2 μM cortisone, 1 μl drug and/or solvent and 11 μg recombinant protein in a final volume of 100 μl.
as §1

T2 sequence (P50172 whole entry): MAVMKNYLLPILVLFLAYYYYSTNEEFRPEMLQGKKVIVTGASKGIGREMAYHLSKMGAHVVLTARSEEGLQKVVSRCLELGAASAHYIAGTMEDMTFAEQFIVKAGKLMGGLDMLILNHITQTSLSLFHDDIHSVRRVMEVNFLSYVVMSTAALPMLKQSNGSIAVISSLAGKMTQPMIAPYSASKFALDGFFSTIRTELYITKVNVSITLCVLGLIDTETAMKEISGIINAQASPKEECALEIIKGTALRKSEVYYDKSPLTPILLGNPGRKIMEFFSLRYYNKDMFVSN
Sequence of 11b-HSD1 (Homo sapiens, UniProt P28845) (P28845 whole entry): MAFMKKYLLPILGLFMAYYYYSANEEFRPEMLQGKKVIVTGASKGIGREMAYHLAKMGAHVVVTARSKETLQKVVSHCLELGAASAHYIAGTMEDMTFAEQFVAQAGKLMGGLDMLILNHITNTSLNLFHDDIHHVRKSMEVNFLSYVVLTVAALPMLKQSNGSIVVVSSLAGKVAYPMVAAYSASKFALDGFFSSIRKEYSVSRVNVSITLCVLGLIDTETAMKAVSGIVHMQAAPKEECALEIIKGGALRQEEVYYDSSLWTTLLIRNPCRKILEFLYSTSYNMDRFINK

| SMILES | IC50 (11b-HSD2 [1]) [µM] | IC50 (11b-HSD1 [2]) [µM] | IC50 (11b-HSD2 [3]) [µM] | IC50 (11b-HSD1 [4]) [µM] | [C2] HSD1 cellular 3T3-L1 Score (11b-HSD1 [2]; pIC50 scored 1-3) | [C2] HSD2 cellular HepG2 Score (11b-HSD2 [3]; pIC50 scored 1-3) |
| --- | --- | --- | --- | --- | --- | --- |
| CN(C)CCCOc1cccc(C(C)(C)C(=O)NC2C3CC4CC(C3)CC2C4)c1 (stereo not drawn) [Compound 92] | > 10 | < 1 | > 10 | < 1 | – | – |
| O=C(NC1C2CC3CC(C2)CC1C3)C1CCSc2ccccc21 (stereo not drawn) [Compound 182] | > 10 | < 1 | > 10 | < 1 | – | – |
| CN(Cc1ccccc1)c1ccc(C(C)(C)C(=O)NC2C3CC4CC(C3)CC2C4)cc1 (stereo not drawn) [Compound 81] | – | 1 to 10 | > 10 | < 1 | – | – |
| O=C(NCC12CC3CC(CC(C3)C1)C2)C1(c2ccccc2)CCCC1 [Compound 35] | > 10 | 1 to 10 | > 10 | – | – | – |
| O=C(NC1CC2CCC1C2)C1(c2ccccc2)CCCC1 (stereo not drawn) [Compound 22] | > 10 | 1 to 10 | > 10 | – | – | – |
| CC1CCCCC1NC(=O)C1(c2ccccc2)CC1 (stereo not drawn) [Compound 19] | > 10 | 1 to 10 | > 10 | – | – | – |
| CC(C)(C(=O)NC1C2CC3CC(C2)CC1C3)c1ccc(OCC(=O)O)cc1 (stereo not drawn) [Compound 72] | > 10 | < 1 | > 10 | 1 to 10 | – | – |
| CC(C)(C(=O)NC1C2CC3CC(C2)CC1C3)c1ccc2ccccc2c1 (stereo not drawn) [Compound 138] | > 10 | < 1 | > 10 | > 10 | – | – |
| CC(C)(C(=O)NC1C2CC3CC(C2)CC1C3)c1cccc(OCCN2CCCC2)c1 (stereo not drawn) [Compound 71] | – | < 1 | > 10 | < 1 | – | – |
| CC(C)(C(=O)NC1C2CC3CC(C2)CC1C3)c1cccc(CCN2CCOCC2)c1 (stereo not drawn) [Compound 191] | > 10 | < 1 | > 10 | < 1 | – | – |
| Cc1cccc(C(C)(C)C(=O)NC2C3CC4CC(C3)CC2C4)c1 (stereo not drawn) [Compound 89] | > 10 | < 1 | > 10 | < 1 | – | – |
| CC(C)(C(=O)NC1C2CC3CC(C2)CC1C3)c1cc(F)cc(F)c1 (stereo not drawn) [Compound 95] | – | < 1 | > 10 | > 10 | – | – |
| O=C(NC1CC2CCC1C2)C1(c2ccccc2)CC1 (stereo not drawn) [Compound 64] | > 10 | 1 to 10 | > 10 | – | – | – |
| COC12CC3CC(C1)C(NC(=O)C(C)(C)c1ccccc1)C(C3)C2 (stereo not drawn) [Compound 109] | – | < 1 | > 10 | < 1 | – | – |
| CC(C)(C(=O)NC1C2CC3CC(C2)CC1C3)c1ccc(Cl)cc1Cl (stereo not drawn) [Compound 106] | – | < 1 | > 10 | > 10 | – | – |
| CN(C)CCOc1cccc(C(C)(C)C(=O)NC2C3CC4CC(C3)CC2C4)c1 (stereo not drawn) [Compound 7] | – | < 1 | > 10 | > 10 | – | – |
| COc1ccc(OC)c(C(C)(C)C(=O)NC2C3CC4CC(C3)CC2C4)c1 (stereo not drawn) [Compound 93] | – | < 1 | > 10 | < 1 | – | – |
| CC(C(=O)NC1C2CC3CC(C2)CC1C3)c1ccccc1 (stereo not drawn) [Compound 28] | – | < 1 | > 10 | – | – | – |
| CC1C(NC(=O)C2(c3ccccc3)CC2)CC2CC1C2(C)C (stereo not drawn) [Compound 56] | > 10 | 1 to 10 | > 10 | – | – | – |
| O=C(NC1C2CC3CC(C2)CC1C3)[C@H]1Cc2ccccc2CN1 (stereo partly drawn) [Compound 255] | > 10 | < 1 | > 10 | – | – | – |
| Cc1cc(C)cc(C(C)(C)C(=O)NC2C3CC4CC(C3)CC2C4)c1 (stereo not drawn) [Compound 3] | – | < 1 | > 10 | < 1 | – | – |
| CC(C)(C(=O)NC1C2CC3CC(C2)CC1C3)c1ccc(Cl)cc1 (stereo not drawn) [Compound 1] | > 10 | < 1 | > 10 | – | – | – |
| COc1ccc(OC)c(C(C)(C)C(=O)NC2C3CC4CC(C3)CC2C4)c1 (stereo not drawn) [Compound 154] | – | – | – | > 10 | 3 (Score 3=pIC50 value>6) | 1 (Score 1=pIC50 value<5) |
| CC1(C)C2CCC1(C)C(NC(=O)C1(c3ccccc3)CC1)C2 (stereo not drawn) [Compound 55] | > 10 | < 1 | > 10 | – | – | – |
| CC1(C)C2CCC1(C)C(NC(=O)C1(c3ccccc3)CCCC1)C2 (stereo not drawn) [Compound 57] | > 10 | 1 to 10 | > 10 | – | – | – |
| O=C(Cc1ccccc1)NC1C2CC3CC(C2)CC1C3 (stereo not drawn) [Compound 30] | – | < 1 | > 10 | – | – | – |
| O=C(NC12CC3CC(CC(C3)C1)C2)C1(c2ccccc2)CCC1 [Compound 16] | > 10 | 1 to 10 | > 10 | – | – | – |
| O=C(NC1C2CC3CC(C2)CC1C3)C1CCc2ccccc2N1 (stereo not drawn) [Compound 253] | > 10 | < 1 | > 10 | – | – | – |
| CCC(C(=O)NC1C2CC3CC(C2)CC1C3)c1ccccc1 (stereo not drawn) [Compound 29] | – | < 1 | > 10 | – | – | – |
| O=C(NCC12CC3CC(CC(C3)C1)C2)C1(c2ccccc2)CC1 [Compound 31] | > 10 | < 1 | > 10 | – | – | – |
